The data set can be described thus: gradient 5% acetonitrile 3 min, to 50% in 2 min, to 85% in 15 min, held 3 min, 100 µL/min. As to conditions: column: Zorbax Extend-C18 2.1 x 50 mm; eluents: water / acetonitrile, 0.1% formic acid. Summed up:
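Standards, all pure, were combined into mixtures of ~100 molecules and run at 100 μL/min on a Zorbax Extend-C18 column (2.1 × 50 mm, 1.8 μm) with water and acetonitrile, each containing 0.1% formic acid. A coupled quadrupole time-of-flight mass spectrometer operated in positive and negative ionization mode. Retention time values come from computationally picked adduct peaks, each inspected manually.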
As to `Cc1nc(CC(=O)Nc2ccc(Cl)cc2F)cs1`, the RP-LC retention time was found to be 838 s. `CC(C)(C)c1noc(-c2ccnc(-n3cnc(C(=O)N4CCOCC4)c3)c2)n1`: the RP-LC retention time stood at 808 s.

The compound `Cc1nc(Nc2ccc(F)cn2)sc1C(=O)N1CCc2ccccc2C1` gave an RP-LC retention time of 872 s. In the case of `O=C(NC1CCCCCC1)C1CCN(c2nccnc2Oc2ccccc2)CC1` it was 1020 s. In the case of `COc1ccc2[nH]c(C(=O)N3CCN(C(=O)c4ccco4)CC3)cc2c1` it was 706 s; in that of `CC1CCCN(c2ccc(-c3noc(CN4CCN(C(C)C)CC4)n3)cn2)C1` (centres undefined), 628 s; in that of `O=S(=O)(c1ccc2c(c1)-c1oncc1CO2)N1CCN(c2ccc(F)cc2)CC1`, 1040 s. In the case of `CCC1CN2C=Nc3oc(C)c(C(=O)Nc4ccc(F)c(Cl)c4)c3C2=N1` (centres undefined) it was 704 s; in that of `CS(=O)(=O)N(C1CCOCC1)C1CN(C(=O)NCc2ccccc2)C1`, 660 s; in that of `CCN(CC)CCN1c2ccccc2Sc2ccc3ccccc3c21`, 893 s. Compound `Cc1cc(C)c(NC(=O)Cn2cnc3nc(N4CCC(C(=O)NC5CC5)CC4)sc3c2=O)c(C)c1` came in with an RP-LC retention time of 754 s.

Compound `N#CC1=CN(c2ccc(F)c(F)c2)c2ccc(F)cc2S1(=O)=O` registered an RP-LC retention time of 934 s. Then `O=C1NC(C(=O)NCc2ccco2)Cn2cccc21` (centres undefined), with 605 s. In the case of `CCc1nc2sc(C(C)C)nn2c1S(=O)(=O)NC1CCCCC1` it was 1020 s; in that of `CN(C)CCNC(=O)c1ccc(CS(=O)Cc2ccc(Cl)cc2)o1` (centres undefined), 604 s; in that of `CCc1ccc(S(=O)(=O)c2cnc(N3CCC(C(N)=O)(N4CCCCC4)CC3)nc2N)cc1`, 661 s.

`O=C(NCc1noc(COc2ccccc2)n1)c1ccc(-c2noc(C3CC3)n2)cc1` gave an RP-LC retention time of 940 s. In turn, `O=C(c1cn[nH]c1)N1CCC(c2nc(CCOCC3CC3)no2)C1` (centres undefined) registered an RP-LC retention time of 626 s. `O=C(CSc1ccc(F)cc1)Nc1cccc2ccc(-n3ccnc3)nc12` yielded an RP-LC retention time of 659 s. In the case of `COc1ccc(CCNC(=O)CSc2nnc(Cc3csc(N)n3)n2C)cc1OC` it was 539 s. `CCc1nn(CC(=O)N2CCC(C(N)=O)CC2)c(=O)c2cc3sccc3n12` came in with an RP-LC retention time of 614 s.

As for `CCOc1ccc(CNC(=O)C2CCN(S(=O)(=O)c3cn(C)cn3)CC2)cc1`, the RP-LC retention time turned out to be 692 s. In the case of `COc1ccc(OCC(=O)Nc2ccc3c(c2)N(C(C)=O)CCC3)cc1` it was 782 s; in that of `Cc1cc2nc(C)c(=O)n(CCC(=O)NCCc3c[nH]c4ccc(Cl)cc34)c2cc1C`, 902 s. The compound `Cc1ccc(-c2cn3cc(C(=O)N4CCCN(C)CC4)ccc3n2)cc1C` had an RP-LC retention time of 583 s.

On to `Cc1ccc(-c2ccc(OCC(=O)NC(C)(C)C)cc2)cc1`, for which the RP-LC retention time is 1100 s. In the case of `O=C(c1cc(-c2ccncc2)n[nH]1)N1CCN(C(=O)C2(c3ccccc3)CC2)CC1` it was 590 s; in that of `COCCc1noc(C2CN(S(=O)(=O)c3cccnc3)C2)n1`, 669 s. In the case of `Cc1ccc(NC(=O)C2CCN(S(=O)(=O)c3ccc4c(c3)sc(=O)n4C)CC2)nc1` it was 697 s; in that of `CC1CCN(C(=O)c2ccc3c(c2)CCCN3S(C)(=O)=O)CC1`, 836 s; in that of `Cn1c(=O)sc2cc(S(=O)(=O)N3CCC(C(=O)NCCc4ccccc4)CC3)ccc21`, 830 s. Regarding `CCCCN1C(=O)C(C)(C(=O)Nc2ccc(F)c(F)c2)Oc2cccnc21` (centres undefined), the RP-LC retention time was 1070 s. On to `O=C(NC1CCCCC1)C1CCc2nc(N3CCCCC3)ncc2C1` (centres undefined), for which the RP-LC retention time turned out to be 723 s. `CCNC(=O)c1cc(C)nc2ccc(CC)cc12` registered an RP-LC retention time of 582 s. In the case of `CCn1nccc1C(=O)N1CCCN(C2=NS(=O)(=O)C(c3ccc(F)cc3)=C2C)CC1` it was 737 s. In the case of `O=C(O)c1ccc(Nc2ncc3c(n2)-c2ccc(Cl)cc2C(c2c(F)cccc2F)=NC3)cc1` it was 947 s. In the case of `CCn1cnc(S(=O)(=O)N2CCCC(C(=O)NCc3ccc(F)cc3)C2)c1` (centres undefined) it was 712 s. In the case of `CC(=O)c1cccc(NC(=O)Cn2cccc2-c2nc(-c3ccccc3)no2)c1`, the RP-LC retention time came to 988 s. Then `CCCN1C(=O)c2cc(S(=O)(=O)Nc3cccc(Cl)c3)ccc2Oc2cccnc21`, with 1120 s; and `COc1ccc(OC)c(S(=O)(=O)NC2CCc3nn(CC4CC4)c(=O)n3CC2)c1` (centres undefined), with 707 s; and `CCc1nc(-c2csc(S(=O)(=O)N3CCCC(C(=O)Nc4c(C)cccc4C)C3)c2)no1` (centres undefined), with 1010 s.

In turn, `COc1ccc2[nH]c(=O)c(CCC(=O)NCCCN3CCCC3=O)cc2c1` showed an RP-LC retention time of 592 s. Then `Cc1ccccc1Nc1c(-c2cccc(Br)c2)nc2cnccn12`, with 1040 s; and `CCOc1cccc(-c2noc(-c3nnn4c3COC(c3ccc(F)cc3)C4)n2)c1` (centres undefined), with 1190 s; and `CC1CCN(c2cc(-c3noc(C(=O)N4CCN(C5CCCCC5)CC4)n3)ccn2)CC1`, with 647 s.

In turn, `CCCc1nc(N2CCN(c3ccccn3)CC2)ncc1C(=O)O` came in with an RP-LC retention time of 606 s. Then `CCc1ccc(CN2C(=O)c3c(C(=O)OC)ncn3CC2(C)C(=O)NCc2ccccc2)cc1` (centres undefined), with 801 s. Then `O=C(c1cccc(Br)c1)N1CCc2nc(-c3ccc(F)cc3)ncc2C1`, with 1010 s; and `O=C(NCCc1c[nH]c2ccc(Cl)cc12)c1ccc(F)cc1-n1cnnn1`, with 805 s; and `Cc1ccc(Nc2c(-c3ccccc3)nc3cnccn23)c(C)c1`, with 982 s. Then `CC(C)(C)NC(=O)N1CCC(CNC(=O)c2ccsc2)CC1`, with 657 s; and `COc1ccc(Cn2nc3ccc(S(=O)(=O)N4CCCCC4)cn3c2=O)cc1`, with 900 s; and `O=C(NC1CC1)c1ccccc1OC1CN(C2CCC2)C1`, with 568 s. Compound `Cc1ccc(-c2ccc(N3CCCC(C(=O)NCc4ccc(Br)cc4)C3)nn2)cc1` (centres undefined) showed an RP-LC retention time of 806 s. Then `CC(=O)NCCc1nc2ccccc2n1CCCOc1cccc2ccccc12`, with 611 s; and `COc1ccccc1C(=O)Nc1cnc(-c2ccc(Cl)cc2)nc1`, with 1170 s. The compound `CCn1cc(-c2nc(CC(=O)NCc3cccs3)cs2)c2cccnc21` registered an RP-LC retention time of 805 s.

Take `Cc1nn(-c2cc(N3CCCCC3)ncn2)c(C)c1CCC(=O)Nc1ccc2c(c1)OCO2`: the RP-LC retention time stood at 921 s. With `Cc1c(C(=O)N2CCOCC2)cnn1-c1ccc(-c2nc(C(C)(C)C)no2)cn1`, the RP-LC retention time is 942 s. In the case of `Cc1cccc(-n2c(=O)c3c(cc(C)n3C)n(CC(=O)Nc3ccccc3F)c2=O)c1` it was 836 s. Then `O=C(NCc1ccccc1)c1ccc2ccnc(N3CCN(C(=O)c4ccco4)CC3)c2c1`, with 673 s; and `CC(C)Nc1ccc2nnc(C3CCC3)n2n1`, with 801 s; and `Cc1ccc(N2CC(c3noc(-c4ccc(C)cc4C)n3)CC2=O)cc1` (centres undefined), with 1190 s. Then `Cc1cc(OCC(=O)Nc2cc(F)ccc2F)nc(N2CCN(c3ccccc3)CC2)n1`, with 900 s; and `O=C1COc2cc(S(=O)(=O)N3CCCC3C(=O)NC3CCCCC3)c(Cl)cc2N1` (centres undefined), with 779 s; and `O=S(=O)(c1cc(F)ccc1F)N1CCCCC1c1noc(COCC2CC2)n1` (centres undefined), with 1130 s. In turn, `O=C(Nc1cccc(Cl)c1)Nc1nccs1` returned an RP-LC retention time of 870 s. In turn, `Cc1nc(-c2csc(S(=O)(=O)N3CCCC(C(=O)NC4CCCCCC4)C3)c2)no1` (centres undefined) returned an RP-LC retention time of 1000 s.

As for `Cc1nc(C)c(C(=O)Nc2nc(-c3ccc(Cl)cc3)cs2)s1`, the RP-LC retention time worked out at 992 s. With `CN(C)c1ccc(-c2noc(CCC(=O)Nc3ccc4c(c3)OCCO4)n2)cc1`, the RP-LC retention time was 875 s. Then `Cc1noc(-c2ccc(-n3ncc(C(=O)N4CCCC4)c3C)nc2)n1`, with 699 s. In the case of `O=C(O)c1ccccc1Nc1cccc2c1C(=O)c1cccc(Nc3ccccc3C(=O)O)c1C2=O` it was 1020 s; in that of `CCOC(=O)c1c(C)[nH]c(C(=O)N2CCC(CC(=O)NCc3ccc(OC(C)C)cc3)CC2)c1C`, 866 s; in that of `Cn1nc(-c2nnc(-c3ccccc3F)o2)c2c1CCN(S(=O)(=O)c1ccc(Cl)s1)C2`, 1010 s. Then `Cc1ccccc1S(=O)(=O)N1CCc2nc(-c3ccc(Cl)cc3)ncc2C1`, with 1240 s; and `CN(C)C(CNC(=O)c1cc(-c2cccs2)on1)c1ccccc1` (centres undefined), with 664 s; and `Cc1ccccc1-c1nc2cnccn2c1NCCC(=O)NCc1cccc(Cl)c1`, with 717 s. The compound `CSc1cccc(NC(=O)Cn2c(C)nc3c(c2=O)CN(Cc2ccccc2)CC3)c1` returned an RP-LC retention time of 587 s. As to `CC1CCN(C(=O)CN2c3ccc(F)cc3-c3ccccc3S2(=O)=O)CC1`, the RP-LC retention time is 982 s.

(Values after the METLIN SMRT retention time set (Domingo-Almenara et al. 2019).)
